Measurements published in PMC8290497, “Taxifolin, an Inhibitor of Sortase A, Interferes With the Adhesion of Methicillin-Resistant Staphylococcal aureus” (Frontiers in Microbiology, 2021).

Legend:
HepG2 cells = test: CCK-8 cytotoxicity assay, HepG2; format: cell-based
Experimental: Cytotoxicity was determined using a cell counting kit-8 assay (CCK-8, US EVERBRIGHT, Suzhou, China), as described previously ([Xiao et al., 2018]). HEK293 or HepG2 cells were seeded in 96-well plates (Corning, United States) at a density of 5 × 10^4 cells/well, then incubated at 37°C in an atmosphere containing 5% CO2 for 24 h. The culture medium was then exchanged with fresh medium containing different concentrations of Tax (0–200 μM) or vehicle and incubated for an additional 24 h. CCK-8 solution (10 μL) was carefully added then incubated for 4 h in an incubator at 37°C. The OD value at 450 nm was measured to calculate cell viability.
FIGURE 2 Growth curve and cytotoxicity. (A) Growth curves of S. aureus USA300 and the ΔsrtA group with different concentrations of Tax. (B) Growth rate of S. aureus USA300 and S. aureus treated with Tax (25 μM). (C) Percent cell viability of HEK293 (purple) and HepG2 (blue) cells were measured using a CCK-8 assay after incubation with Tax for 24 h.

[1] = tested on: S. aureus mature biofilms; test: Mature biofilm assay (crystal violet); format: cell-based, Staphylococcus aureus; conditions: 25–200 μM Tax, 24 h
Experimental: S. aureus biofilms were formed for 24 h at 37°C on the surfaces of the wells of a 96-well plate. Following biofilm formation, different Tax concentrations (25–200 μM) were added to selected wells and the plates were incubated for 24 h at 37°C. The effects of Tax on the mature biofilms were estimated using the crystal violet stain and recorded by a microplate reader.
(§1) FIGURE 3 Effect of SrtA inhibitor on virulence-related phenotypes in S. aureus Newman strain. (A) Impact of Tax on the ability of S. aureus to adhere to fibrinogen. (B) Biofilm formation of S. aureus in the presence of different concentrations of Tax. (C) Mature biofilms of S. aureus in the presence of different concentrations of Tax. The ΔsrtA group represented the positive control. (D) Tax affects internalization of S. aureus into A549 cells. A549 cells were infected with S. aureus pretreated with different concentrations of Tax then lysed 2 h post-infection. The number of viable S. aureus in the cells was quantified by serial dilution on TSA agar plates. (E) Effects of Tax on S. aureus protein A (SpA) using FITC-labeled rabbit IgG. Error bars represent means ± SD of three replicates. *P < 0.05, **P < 0.01, ***P < 0.001 calculated with a two-tailed Student’s t-test.

Q172A-SrtA mutant = biological target: T1, Q172A-SrtA mutant (Staphylococcus aureus, UniProt Q2FV99, Q172A); test: Fluorescence quenching assay, Q172A-SrtA; format: binding
T1 construct: 6xHis; made in house; host or cells: E. coli BL21 (DE3), mutated pET28a-SrtA
Experimental: Site-directed mutagenesis for D170A-SrtA and Q172A-SrtA was performed based on plasmid pET28a-SrtA using a multi-site mutagenesis kit (Transgen, Beijing, China) and the desired mutation was verified via DNA sequencing by Sangon Biotech (Shanghai, China). Subsequently, recombinant SrtA and the SrtA mutant proteins (D170A and Q172A) were expressed and purified in accordance with a previously published procedure ([Zhulenkovs et al., 2014]). Briefly, bacteria were cultured until an OD600 value of 0.8 was achieved, after which 0.5 mM isopropyl-β-D-thiogalactopyranoside (IPTG) was added to induce recombination of SrtA at 16°C overnight. Because the recombinant protein had 6 × His tags, it was purified using a nickel-nitrilotriacetic acid (Ni-NTA) purification system. Imidazole (10 mM) was used to wash away excess protein, while 400 mM imidazole was employed to elute the target protein.
Molecular modeling studies highlight the benefits of performing site-directed mutagenesis studies. Therefore, fluorescence quenching experiments were utilized to determine the binding affinity of Tax with SrtA and SrtA mutants (D170A, Q172A).

SrtA = biological target: T2, SrtA (Staphylococcus aureus, UniProt Q2FV99); test: Localized surface plasmon resonance (LSPR); format: binding
T2 construct: 6xHis; made in house; host or cells: E. coli BL21 (DE3), plasmid pET28a-SrtA
Experimental: The interaction between Tax and SrtA was determined using an OpenSPR localized surface plasmon resonance (LSPR) instrument (Nicoya, Canada) at 25°C, as described previously ([Panneer Selvam et al., 2018]; [Song et al., 2019]). Briefly, SrtA proteins were captured on a COOH chip using a standard amine coupling system. A 200 μL aliquot of blocking buffer was added to rinse the sample ring and to remove any air. After a stable baseline had been achieved, the affinity between Tax and SrtA was measured by injecting 20, 40, 80, 160, or 320 μM Tax. The kinetic parameters of the binding reaction were calculated and visualized using TraceDrawer software ([Yang et al., 2011]).
FIGURE 4 Expression of SrtA in the presence of Tax and the interaction of different concentrations of Tax with SrtA. (A) Western blot analysis of SrtA protein from S. aureus treated with various concentrations of Tax and grayscale analysis of SrtA protein bands. (B) LSPR analysis verified the binding affinity of Tax with SrtA. Error bars represent means ± SD of three replicates. ***P < 0.001 calculated with a two-tailed Student’s t-test.

[2] = tested on: surface-anchored SpA of S. aureus; test: FITC-IgG binding assay for staphylococcal protein A (SpA); format: cell-based; conditions: Staphylococcus aureus, read-out: SpA fluorescence, relative activity % of the WT group
Experimental: Bacterial cultures grown overnight were diluted 1:100 and cultured in an incubator at 37°C with Tax or DMSO to a concentration of 10^8 CFU/mL. The ΔsrtA mutant strain was assayed as a positive control. The bacteria were collected and washed three times in PBS. A 50 μL aliquot of bacterial culture was mixed with an equal volume of FITC-labeled rabbit anti-goat-IgG (1:200, Sigma, United States) then incubated in the dark for 1 h. The bacteria were then washed and suspended in PBS. A multimode microplate reader (Tecan, Spark 20M) was used to measure fluorescence intensity at 535 nm when illuminated at an excitation wavelength of 485 nm.
as §1, with “A549 cells were infected with S. aureus pretreated with different concentrations of Tax then lysed 2 h post-infection.” left out, “(E) Effects of Tax on S. aureus protein A (SpA) using FITC-labeled rabbit IgG.” left out

BALB/c mice = conditions: mouse, in vivo, ip, 200 mg/kg
Experimental: An injection of PBS represented the control group. Symptoms of poisoning or abnormal behavior were monitored, and survival of the mice in each group was recorded after 72 h.

**Q.** Which “toxicity toward mammalian cells (HepG2)” value (HepG2 cells; 200 μM) does the source give for O=C1c2c(O)cc(O)cc2OC(c2ccc(O)c(O)c2)C1O (centres unmarked) [Tax, taxifolin] here?
**A.** did not display toxicity

**Q.** And the “cytotoxicity toward HepG2 cells” value (HepG2 cells; at 24.53 ± 0.42 μM, 24 h)?
**A.** no significant cytotoxicity

**Q.** What about the “effect on mature biofilms” value [1] of the same molecule?
**A.** had no effect

**Q.** What about the Kd (Q172A-SrtA mutant) of the same molecule?
**A.** 26 µM

**Q.** What about the Kd (SrtA) of the same molecule?
**A.** 165 µM

**Q.** And the kon (SrtA; read-out: Ka)?
**A.** 22.3 M⁻¹ s⁻¹

**Q.** What about the activity at 200 µM [2] of the same molecule?
**A.** 36.1 ± 1.59%

**Q.** And the “acute toxicity, signs observed” value (BALB/c mice)?
**A.** no signs of malaise, or tardy or inanimate behavior
